Data from patent EP0697214A1, “Liposomal cyclosporin pharmaceutical formulations” (VESTAR, INC., priority 1994, dated 1996).

What was measured:
[1] = system: sensitive L1210 murine leukemia cells; assay: Multiple drug resistance test, 3H-thymidine uptake; assay type: cell-based; details: Mus musculus, daunorubicin alone, 24 hours, read-out: IC₅₀ in Sensitive Cells
Experimental: (§1) Multiple drug resistance (MDR) was tested in vitro using resistant and sensitive L1210 murine leukemia cells. Liposomal Cyclosporine was obtained as described in Example 13 (19:3:1 formulation HEPC:DMPG:Cyclosporine) except that a spray dried lipid powder was used and the unilamellar vesicles were formed through homogenization. Daunorubicin, Cyclosporine-CreL, and liposomal Cyclosporine were diluted in RPMI-1640. The final concentration of daunorubicin in each well was 0, 0.3, 1, 3, 10, 30, 100 or 1000 ng/ml. The final concentration of Cyclosporine-CreL in each well was 0, 10, 70, 300, 1,250, 5,000, 20,000, 80,000, 160,000, 310,000, 620,000, or 1,050,000 ng/ml. The final concentration of liposomal Cyclosporine in each well was 0, 10, 70, 300, 1,250, 5,000, 20,000, 80,000, 160,000, 310,000, 620,000, or 1,050,000 ng/ml. Fifty microliters of each daunorubicin concentration was added to one well of a flat bottom 96-well culture plate. Fifty microliters of the appropriate concentration of Cyclosporine-CreL or liposomal Cyclosporine were also added to each well. Each drug combination was tested in triplicate. […]
(§2) After 20 hours of incubation, the cells were pulsed with 0.5µCu of³H-Thymidine per well. […] The cells in each well were then harvested using a Skatron Harvester and counted in a beta liquid scintillation counter (LKB). The IC₅₀ was calculated using a linear regression treatment of the data.

[2] = system: resistant L1210 murine leukemia cells; assay: Multiple drug resistance test, 3H-thymidine uptake; assay type: cell-based; details: Mus musculus, daunorubicin alone, 24 hours, read-out: IC₅₀ in Resistant Cells
Experimental: as §1, §2

Q: Which IC50 [1] does the source give for COc1cccc2c1C(=O)c1c(O)c3c(c(O)c1C2=O)C[C@@](O)(C(C)=O)C[C@@H]3O[C@H]1C[C@H](N)[C@H](O)[C@H](C)O1 [Daunorubicin] here?
A: 0.47 µg/mL

Q: What about the IC50 [2] of the same compound?
A: 0.722 µg/mL
